Experimental data as given in ChEMBL document CHEMBL3351952, “The antimicrobial activity of mono-, bis-, tris-, and tetracationic amphiphiles derived from simple polyamine platforms” (2014).

What was measured:
Format in all cases: functional
Enterococcus faecalis = experiment: Antimicrobial activity against Enterococcus faecalis OG1RF after 72 hrs by broth microdilution method
Escherichia coli = experiment: Antimicrobial activity against Escherichia coli MC4100 after 72 hrs by broth microdilution method; conditions: MC4100, 72 h
Staphylococcus aureus = experiment: Antimicrobial activity against Staphylococcus aureus SH1000 after 72 hrs by broth microdilution method; conditions: SH1000, 72 h
Pseudomonas aeruginosa = experiment: Antimicrobial activity against wild-type Pseudomonas aeruginosa PAO1 after 72 hrs by broth microdilution method; conditions: PAO1, 72 h

| Compound | MIC (Enterococcus faecalis) [µM] | MIC (Escherichia coli) [µM] | MIC (Staphylococcus aureus) [µM] | MIC (Pseudomonas aeruginosa) [µM] |
| --- | --- | --- | --- | --- |
| CCCCCCCCCCCC[N+](C)(C)CCN(C)CCN(C)CC[N+](C)(C)CCCCCCCCCCCC | 1 | 1 | 1 | 4 |
| CCCCCCCCCCCC[N+](C)(C)CCCCC[N+](C)(C)CCCCCCCCCCCC | 1 | 1 | 2 | 2 |
| CCCCCCCCCCC[N+](C)(C)CCN(C)CC[N+](C)(C)CCCCCCCCCCC | 2 | 2 | 2 | 8 |
| CCCCCCCCCCCC[N+](C)(C)CCN(C)CC[N+](C)(C)CCCCCCCCCCCC | 1 | 2 | 1 | 4 |
| CCCCCCCCCC[N+](C)(C)CC[N+](C)(C)CC[N+](C)(C)CCCCCCCCCC | 8 | 8 | 2 | 63 |
| CCCCCCCCCCC[N+](C)(C)CC[N+](C)(C)CC[N+](C)(C)CCCCCCCCCCC | 2 | 4 | 2 | 8 |
| CCCCCCCCCCCC[N+](C)(C)CC[N+](C)(C)CC[N+](C)(C)CCCCCCCCCCCC | ≤ 60.2 | 0.5 | ≤ 60.2 | 1 |
| CCCCCCCCCCCCCC[N+](C)(C)CC[N+](C)(C)CC[N+](C)(C)CCCCCCCCCCCCCC | 1 | 2 | 1 | 8 |
| C=CC[N+](C)(CC[N+](C)(C)CCCCCCCCCCC)CC[N+](C)(C)CCCCCCCCCCC | 2 | 2 | 1 | 16 |
| C=CC[N+](C)(CC[N+](C)(C)CCCCCCCCCCCC)CC[N+](C)(C)CCCCCCCCCCCC | 2 | 2 | 2 | 4 |
| C=CC[N+](C)(CC[N+](C)(C)CCCCCCCCCCCCCC)CC[N+](C)(C)CCCCCCCCCCCCCC | 2 | 2 | 2 | 8 |
| C=CC[N+](C)(CC[N+](C)(C)CCCCCCCCCCCCCCCC)CC[N+](C)(C)CCCCCCCCCCCCCCCC | 4 | 8 | 4 | 16 |
| CCCCCCCCCCCC[N+](C)(C)CCCCCCC[N+](C)(C)CCCCCCCCCCCC | 1 | 2 | 1 | 8 |
| C=CC[N+](C)(CCC[N+](C)(C)CCCCCCCCCCCC)CCC[N+](C)(C)CCCCCCCCCCCC | 2 | 2 | 1 | 4 |
| CCCCCCCCCCCC[N+](C)(C)CCC[N+](C)(CCCC)CCC[N+](C)(C)CCCCCCCCCCCC | 1 | 1 | 1 | 2 |
| CCCCCCCCCCCC[N+](C)(C)CCC[N+](C)(CCC[N+](C)(C)CCCCCCCCCCCC)Cc1ccccc1 | 1 | 1 | 1 | 2 |
| CCCCCCCCCCCC[N+](C)(C)CCC[N+](C)(CCC[N+](C)(C)CCCCCCCCCCCC)Cc1ccc(CCCCCCCC)cc1 | 1 | 1 | 1 | 4 |
| CCCCCCCCCCCC[N+](C)(C)CCN(C)CCN(C)CCN(C)C | 8 | 8 | 8 | 32 |
| CCCCCCCCCCCCCC[N+](C)(C)CCN(C)CCN(C)CCN(C)C | 16 | 32 | 16 | 125 |
| C=CC[N+](C)(CC[N+](C)(C)CCCCCCCCCCCC)CC[N+](C)(CC=C)CC[N+](C)(C)CCCCCCCCCCCC (configuration not stated) | 1 | 1 | 1 | 2 |
| CCCCCCCCCCCC[N+](C)(C)Cc1ccccc1 [BENZODODECINIUM CHLORIDE] | 8 | 32 | 8 | 63 |

Now from value to compound:

| MIC (Enterococcus faecalis) [µM] | MIC (Escherichia coli) [µM] | MIC (Staphylococcus aureus) [µM] | MIC (Pseudomonas aeruginosa) [µM] | Compound |
| --- | --- | --- | --- | --- |
| 4 | 8 | 2 | 63 | CCCCCCCCCC[N+](C)(C)CCCCC[N+](C)(C)CCCCCCCCCC |
| 1 | 4 | 1 | 16 | CCCCCCCCCCCCCC[N+](C)(C)CCCCC[N+](C)(C)CCCCCCCCCCCCCC |
| 2 | 16 | 2 | 32 | CCCCCCCCCCCCCCCC[N+](C)(C)CCCCC[N+](C)(C)CCCCCCCCCCCCCCCC |
| 8 | 8 | 2 | 63 | CCCCCCCCCC[N+](C)(C)CCN(C)CC[N+](C)(C)CCCCCCCCCC |
| 1 | 4 | 2 | 16 | CCCCCCCCCCCCCC[N+](C)(C)CCN(C)CC[N+](C)(C)CCCCCCCCCCCCCC |
| 2 | 16 | 4 | 32 | CCCCCCCCCCCCCCCC[N+](C)(C)CCN(C)CC[N+](C)(C)CCCCCCCCCCCCCCCC |
| 4 | 2 | 2 | 63 | C=CC[N+](C)(CC[N+](C)(C)CCCCCCCCCC)CC[N+](C)(C)CCCCCCCCCC |
| 2 | 1 | 1 | 4 | CCCCCCCCCCCC[N+](C)(C)CCCN(C)CCC[N+](C)(C)CCCCCCCCCCCC |
| 2 | 2 | 1 | 8 | CCCCCCCCCCCC[N+](C)(C)CCC[N+](C)(C)CCC[N+](C)(C)CCCCCCCCCCCC |
| 1 | 1 | 0.5 | 4 | CCCCCCCCCCCC[N+](C)(C)CCC[N+](C)(CCCCCCCCCCCC)CCC[N+](C)(C)CCCCCCCCCCCC |
| 1 | 2 | 1 | 8 | CCCCCCCCCCCCCC[N+](C)(C)CCN(C)CCN(C)CC[N+](C)(C)CCCCCCCCCCCC |
| 1 | 2 | 2 | 16 | CCCCCCCCCCCCCC[N+](C)(C)CCN(C)CCN(C)CC[N+](C)(C)CCCCCCCCCCCCCC |
